The assay concerns 282377-053-R-J1-PDC complex spheroid viability. The assay can be described thus: Anticancer human tumor 282377-053-R-J1-PDC patient-derived colon adenocarcinoma cell line growth inhibition [RAS]. To be noted: for viability, T/C: stronger effect = lower value. The text has this: RAS pathway inhibitors in Combinations in Complex Spheroids
A high-throughput screen of multi-cell type tumor spheroids was designed to identify active combinations of RAS pathway inhibitors and targeted small molecules. Complex spheroids include a stromal component modeled by human endothelial cells (HUVEC) and fibroblasts modeled by human mesenchymal stem cells (MSCs). The concentration ranges selected for each drug and investigational agent were based upon clinically achievable concentrations if the clinical Cmax of the agent was known.
Compounds. The drugs and investigational agents: abemaciclib (NSC768073), cobimetinib (NSC768068), divarasib (GDC6063, NSC841802), docetaxel (NSC628503), GDC-1971 (RLY-1971, NSC841576), gemcitabine (NSC613327), inavolisib (NSC800729), ipatasertib (NSC767898), KB-0742 (NSC834161), MRTX-1133 (NSC836407), osimertinib (NSC779217), RMC-4630 (NSC839698), RMC-6236 (NSC851965), RMC-6291 (NSC852671), Ro-3306 (NSC812927), sapanisertib (NSC764658), SN-38 (NSC673596), staurosporine (NSC755774), SY5609 (NSC837396), and tovorafenib (DAY101, NSC766906), were obtained from the National Cancer Institute (NCI) Developmental Therapeutics Program Chemical Repository. The FDA-approved anticancer drug set is available from the NCI Developmental Therapeutics Program. […] The stock solutions were prepared in dimethyl sulfoxide (DMSO, Sigma-Aldrich, St. Louis, MO, cat. D2650) at 800-fold the tested concentration and stored at -70 degrees C prior to their use. All drugs and investigational agents were tested over a range starting from a high concentration at or near the clinical Cmax and decreasing in half-log increments. If the clinical Cmax for an agent had not been determined, the highest concentration tested was 10 microM.
Cell Culture. All cells were maintained in an incubator at 37 degrees C and 5% CO2 with 95% humidity. The PDC lines were cultured according to standard operating procedures established by the NCI PDMR. All PDCs were thawed and cultured in Matrigel-coated flasks prepared with a working solution of 1X Ham's F-12 nutrient mix, without supplementation (Invitrogen, Waltham, MA, cat. 11765054), 100 U/mL penicillin-streptomycin (Invitrogen, cat. 15140122), and 2.5% Matrigel (Corning Inc., Corning, NY, cat. 354248) for the first three passages. The 362531-283-R-J2-PDC and 782815-120-R-J1-PDC lines were cultured in 6C/Colon 1B media, which includes advanced DMEM/F-12 (Thermo Fisher Scientific, cat. 12634028), 10 mM HEPES (Thermo Fisher Scientific, cat. 15630080), 1X GlutaMAX supplement (Thermo Fisher Scientific, cat. 35050061), 0.1 mg/mL primocin (InvivoGen, San Diego, CA, cat. ant-pm-2), 10% defined fetal bovine serum, heat inactivated (HyClone Laboratories Inc., Logan, UT, cat. SH30070.03HI), 50% L-WRN conditioned media (ATCC, cat. CRL-3276), 1.25 mM N-Acetyl-L-cysteine (Sigma-Aldrich, cat. A9165), 10 mM nicotinamide (Sigma-Aldrich, cat. N0636), 1X B-27 supplement (Thermo Fisher Scientific, cat. 17504044), 1X N-2 supplement (Thermo Fisher Scientific, cat. 17502048), 50 ng/mL human EGF (Thermo Fisher Scientific, cat. PHG0311), and 10 microM Y-27632 dihydrochloride (Tocris Bioscience, cat. 1254). The K12877-001-R-J1-PDC line was cultured in 6I media, which includes all 6C/Colon 1B media plus 10 ng/mL human FGF-10 (PeproTech, cat. 100-26), 1 ng/mL human FGF-2 (PeproTech, cat. 100-18B), 1 µM prostaglandin E2 (Tocris Bioscience, cat. 2296), […] hydrocortisone (Sigma-Aldrich, cat. H4001), and […] bovine insulin (Sigma-Aldrich, cat. I6634). The K86415-001-R-J1-PDC line was cultured in 6D media, which includes all 6C/Colon 1B media components minus the L-WRN conditioned media. The 485176-168-R4-J1-PDC was cultured in PANC media, which includes all 6C/Colon 1B media plus 100 ng/mL human FGF-10 (PeproTech, cat. 100-26), 500 nM SB-431542 (Selleckchem, cat. S1067), and 10 nM gastrin (Tocris Bioscience, cat. 3006). […]

The mark [1] stands for this setting: curve of first compound, second compound 0.0316 µM.
[2] abbreviates: curve of first compound, second compound 0.1 µM.
Setting [3] is: curve of first compound, second compound 0.316 µM.
The mark [4] stands for this setting: curve of first compound, second compound 1 µM.
[5] abbreviates: curve of first compound, second compound 3.16 µM.
[6] abbreviates: curve of first compound, second compound 10 µM.
[7] abbreviates: second compound 0.0316 µM, first compound 0.00316 µM.
Where [8] appears, read: second compound 0.0316 µM, first compound 0.01 µM.
The mark [9] stands for this setting: second compound 0.0316 µM, first compound 0.0316 µM.
[10] abbreviates: second compound 0.0316 µM, first compound 0.1 µM.
Where [11] appears, read: second compound 0.0316 µM, first compound 0.316 µM.
Setting [12] is: second compound 0.0316 µM, first compound 1 µM.
The mark [13] stands for this setting: second compound 0.1 µM, first compound 0.00316 µM.
The mark [14] stands for this setting: second compound 0.1 µM, first compound 0.01 µM.
The mark [15] stands for this setting: second compound 0.1 µM, first compound 0.0316 µM.
Setting [16] is: second compound 0.1 µM, first compound 0.1 µM.
[17] abbreviates: second compound 0.1 µM, first compound 0.316 µM.
Where [18] appears, read: second compound 0.1 µM, first compound 1 µM.
The mark [19] stands for this setting: second compound 0.316 µM, first compound 0.00316 µM.
[20] abbreviates: second compound 0.316 µM, first compound 0.01 µM.
[21] abbreviates: second compound 0.316 µM, first compound 0.0316 µM.
The mark [22] stands for this setting: second compound 0.316 µM, first compound 0.1 µM.
Setting [23] is: second compound 0.316 µM, first compound 0.316 µM.
The mark [24] stands for this setting: second compound 0.316 µM, first compound 1 µM.
The mark [25] stands for this setting: second compound 1 µM, first compound 0.00316 µM.
[26] abbreviates: second compound 1 µM, first compound 0.01 µM.
The mark [27] stands for this setting: second compound 1 µM, first compound 0.0316 µM.
Where [28] appears, read: second compound 1 µM, first compound 0.1 µM.
Setting [29] is: second compound 1 µM, first compound 0.316 µM.
Setting [30] is: second compound 1 µM, first compound 1 µM.
The mark [31] stands for this setting: second compound 3.16 µM, first compound 0.00316 µM.
Setting [32] is: second compound 3.16 µM, first compound 0.01 µM.
Where [33] appears, read: second compound 3.16 µM, first compound 0.0316 µM.
The mark [34] stands for this setting: second compound 3.16 µM, first compound 0.1 µM.
Where [35] appears, read: second compound 3.16 µM, first compound 0.316 µM.
[36] abbreviates: second compound 3.16 µM, first compound 1 µM.
[37] abbreviates: second compound 10 µM, first compound 0.00316 µM.
Where [38] appears, read: second compound 10 µM, first compound 0.01 µM.
[39] abbreviates: second compound 10 µM, first compound 0.0316 µM.
The mark [40] stands for this setting: second compound 10 µM, first compound 0.1 µM.
Where [41] appears, read: second compound 10 µM, first compound 0.316 µM.
Setting [42] is: second compound 10 µM, first compound 1 µM.

Usually viability, T/C stands for the result in the treated group divided by that in the control group, in per cent. As a reminder, the IC50 is the midpoint of a concentration-inhibition curve.
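Also: spheroids exposed to agents for seven days before readout.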
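For viability, T/C in this document: luminescence viability as percent of DMSO vehicle control wells.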

For `CC(=O)OC12COC1CC(O)C1(C)C(=O)C(O)C3=C(C)C(OC(=O)C(O)C(NC(=O)OC(C)(C)C)c4ccccc4)CC(O)(C(OC(=O)c4ccccc4)C21)C3(C)C` (stereo unspecified), the viability, T/C is 33.6% [middle of 4 runs] (compound 0.1 µM) and 37.9% [middle of 4 runs] (compound 0.316 µM). Besides, the half-inhibitory concentration (IC50) (curve of compound) was under 31.6 nM.
In the case of `CCC(CC)c1cc(NC2CCC(N)C2)n2nccc2n1` (stereo unspecified), the viability, T/C (compound 1 µM) was 112% [middle of 4 runs]; the viability, T/C (compound 3.16 µM) was 10.4% [middle of 4 runs]; the viability, T/C (compound 10 µM) is 3% [middle of 4 runs]. In addition, for the setting “curve of compound”, the IC50 was 1.96 µM [middle of 4 runs].
`C=CC(=O)Nc1cc(Nc2nccc(-c3cn(C)c4ccccc34)n2)c(OC)cc1N(C)CCN(C)C` + C#Cc1c(F)ccc2cc(O)cc(-c3ncc4c(N5CC6CCC(C5)N6)nc(OCC56CCCN5CC(F)C6)nc4c3F)c12: the IC50 runs as follows: under setting [1], over 1000 nM; under setting [2], over 1000 nM; under setting [3], over 1000 nM; under setting [4], over 1000 nM; under setting [5], over 1000 nM; under setting [6], over 1000 nM. Further, the viability, T/C under setting [7] was 104%; the viability, T/C under setting [8] is 91.5%; the viability, T/C under setting [9] was 98.2%; the viability, T/C under setting [10] is 104%; the viability, T/C under setting [11] was 95.6%; the viability, T/C under setting [12] was 110%. The viability, T/C reads like this: under setting [13], 96.6%; under setting [14], 90.4%; under setting [15], 99.9%; under setting [16], 91.9%; under setting [17], 93.5%; under setting [18], 97.4%. In addition, the viability, T/C is, setting by setting: under setting [19], 88.1%; under setting [20], 85.3%; under setting [21], 84.9%; under setting [22], 86.1%; under setting [23], 91.7%; under setting [24], 85.9%. Further, the viability, T/C runs as follows: under setting [25], 98.5%; under setting [26], 100%; under setting [27], 93%; under setting [28], 108%; under setting [29], 82.8%; under setting [30], 95.9%. In addition, the viability, T/C under setting [31] was 88.2%; the viability, T/C under setting [32] was 87.8%; the viability, T/C under setting [33] is 114%; the viability, T/C under setting [34] is 92.3%; the viability, T/C under setting [35] is 108%; the viability, T/C under setting [36] is 101%. Besides, the viability, T/C reads like this: under setting [37], 103%; under setting [38], 94.9%; under setting [39], 108%; under setting [40], 73%; under setting [41], 80.1%; under setting [42], 99.2%.
For `O=C(c1ccc(F)c(F)c1Nc1ccc(I)cc1F)N1CC(O)([C@@H]2CCCCN2)C1` + C#Cc1c(F)ccc2cc(O)cc(-c3ncc4c(N5CC6CCC(C5)N6)nc(OCC56CCCN5CC(F)C6)nc4c3F)c12, the half-inhibitory concentration (IC50) by setting is: under setting [1], 80 nM; under setting [2], 63.5 nM; under setting [3], 50.4 nM; under setting [4], 45.5 nM; under setting [5], 42.5 nM; under setting [6], 24.9 nM. Further, the viability, T/C reads like this: under setting [7], 92%; under setting [8], 73%; under setting [9], 80.9%; under setting [10], 42.3%; under setting [11], 27.6%; under setting [12], 19.7%. The viability, T/C is 86.3% under setting [13]; 75.2% under setting [14]; 62.5% under setting [15]; 42.5% under setting [16]; 26% under setting [17]; 16.9% under setting [18]. Further, the viability, T/C was 87.7% under setting [19]; 77.5% under setting [20]; 58.5% under setting [21]; 37.2% under setting [22]; 23% under setting [23]; 15.6% under setting [24]. For the same molecule, the viability, T/C is 75.3% under setting [25]; 77.1% under setting [26]; 59.1% under setting [27]; 29% under setting [28]; 20.5% under setting [29]; 14.9% under setting [30]. Moreover, the viability, T/C was 79.8% under setting [31]; 75.6% under setting [32]; 56.4% under setting [33]; 30.5% under setting [34]; 20.7% under setting [35]; 15.6% under setting [36]. The viability, T/C is, setting by setting: under setting [37], 97.2%; under setting [38], 75.1%; under setting [39], 41.8%; under setting [40], 25.4%; under setting [41], 17.5%; under setting [42], 12.1%.

These data come from PubChem BioAssay AID2060905 (Molecular Pharmacology Branch, DTP, NCI, 2025).
